For one series, the system named is Apis mellifera. The conditions noted are these: acute; duration: 48 hours; oral; unspecified; mortality.
The next series relates to Colinus virginianus. The conditions noted are these: for LD50: acute, oral, mortality.
A further series deals with Anas platyrhynchos. The conditions noted are these: reproductive.
A further series relates to Bibionidae. The conditions noted are these: chronic/long-term; duration: 28 days; no effects.
A further series relates to Daphnia magna. The conditions noted are these: chronic/long-term; duration: 21 days; reproduction.
The next series relates to Mus musculus. The conditions noted are these: acute; oral; F; mortality.
The next series concerns Pimephales promelas. The conditions noted are these: chronic/long-term; duration: 28 days; body weight.
The subject of the next series is Canidae. The conditions noted are these: chronic; duration: 1 years; oral; Dog Other; clinical signs.
The test system of the next series is Lepomis macrochirus. The conditions noted are these: acute; duration: 96 hours; mortality.
The next series concerns Aphidius rhopalosiphi. Briefly: LR50; higher = less toxic. The conditions noted are these: acute; duration: 48 hours; mortality.
In the next series the test system is Typhlodromus pyri. The experiment in a line: LR50; higher = less toxic. The conditions noted are these: chronic/long-term; duration: 7 days; mortality.

The values below come from EPA's ToxValDB 9.5 (doi:10.2903/j.efsa.2013.3181).

≈ marks a conversion by molar mass, not a printed value.

Consider `CC(C)C1CCC(Cc2ccc(Cl)cc2)C1(O)Cn1cncn1` (stereo not drawn) [Ipconazole], for which the LD50 is over 100 µg/piece in the series on Apis mellifera; over 300 mg/kg-day with Colinus virginianus (diet); 962 mg/kg in the series on Colinus virginianus; over 2000 mg/kg in the series with Rattus norvegicus (acute, oral, F, mortality); 468 mg/kg in the series on Mus musculus. Further, the NOEL in the series on Colinus virginianus (reproduction developmental) came to 4.3 mg/kg-day; in the series on Anas platyrhynchos, 27.1 mg/kg-day. The LC50 in the series with Tagia sp. (acute, duration: 14 days, mortality) turned out to be 597 mg/kg; in the series with Lepomis macrochirus, 1.3 µg/mL (≈ 3.89 µM). Moreover, the NOEC was 0.78 mg/kg in the series on Tagia sp. (chronic/long-term, duration: 8 weeks, reproduction); 3.52 mg/L in the series on Bibionidae; 10.9 µg/L in the series with Daphnia magna; 0.44 µg/L in the series with Pimephales promelas. Moreover, the no-observed-adverse-effect level (NOAEL) with Rattus norvegicus (developmental, development) worked out at 3 mg/kg-day; with Rattus norvegicus (reproduction developmental, body weight) it was 8 mg/kg-day; in the series on Canidae, 1.5 mg/kg-day. For the same compound, the LR50 in the series with Aphidius rhopalosiphi stood at 35.1 g/ha; with Typhlodromus pyri, 17.4 g/ha.

The term NOAEL denotes the highest tested level that showed no adverse finding.
